The values that follow come from patent US20240391889A1, “ANTIMICROBIAL COMPOUNDS AND THE METHODS OF USE” (priority 2021, published 2024).

In series [1] the test system is C. auris. Nature of the series: MIC assay, C. auris. Format: cell-based, Candida auris.
Series [2] is described as follows: in vitro. Format: cell-based, human.
The subject of series [3] is HepG2 liver cells. Put plainly: in vitro. Format: cell-based.
In series [4] the test system is mouse fibroblast (3T3) cells. Put plainly: in vitro. Format: cell-based.
Series [5] concerns human keratinocyte (HaCat) cells. Put plainly: in vitro. Format: cell-based.
The test system of series [6] is Mycobacterium smegmatis. Put plainly: MIC assay, M. smegmatis (72 h). Format: cell-based. The procedure:
The minimum inhibitory concentration (MIC) of peptoids against the ESKAPE bacteria (Enterococcus faecium ATCC 6569; Staphylococcus aureus ATCC 29213; Klebsiella pneumoniae ATCC 13883; Acinetobacter baumanii ATCC 19606; Pseudomonas aeruginosa ATCC 25619; Enterococcus faecalis ATCC 29212; and Escherichia coli ATCC 25922) was determined following CLSI guidelines (CLSI. Methods for Dilution Antimicrobial Susceptibility Tests for Bacteria That Grow Aerobically, 11th Edition. Clinical and Laboratory Standards Institute, 2018). The MIC against Mycobacterium smegmatis was also determined following CLSI guidelines (Woods, G. L. et al. Susceptibility Testing of Mycobacteria, Nocardiae, and Other Aerobic Actinomycetes, 2nd edition. (2011)). Colonies picked from streaked tryptic soy agar plates were added to tryptic soy broth (TSB) to achieve a turbidity of OD600=0.08-0.15. Inoculant was diluted 1:200 into cation adjust Mueller Hinton Broth (CAMHB) and 90 μL was plated into each well of a 96 well black-wall plate. […] Following incubation for the ESKAPE bacteria, PRESTO BLUE (10 μL) was added to each well and incubated at 37° C. for one hour before measuring fluorescence on a SPECTRAMAX M5 plate reader (Ex. 555 nm; Em. 585 nm). Following incubation for M. smegmatis, wells were scored following CLSI guidelines to determine MIC. […]

Series [7] concerns C. albicans biofilm. Put plainly: Fungal biofilm minimum inhibitory concentration assay (PrestoBlue). Format: cell-based, Candida albicans. Here is the method: The biofilm minimum inhibitory concentration (MIC) of peptoids against fungal pathogens C. albicans was determined following CLSI guidelines (CLSI. Reference method for broth dilution antifungal susceptibility testing of yeasts; approved standard-third edition; CLSI document M27 A3. Clinical and Laboratory Standards Institute, 2008). Colonies were transferred from a streaked YPD plate to 0.85% saline to reach an OD530 between 0.15 and 0.25. This inoculant was diluted 1:100 into RPMI-MOPS and then further diluted 1:20 into RPMI-MOPS. 200 μL of inoculant was seeded into each well of a 96 well black-walled plate. Plates were incubated overnight at 37° C. Media was gently removed and gently washed three times with PBS. RPMI-MOPS (198 μL) were added to each well. 2-fold serial dilutions of 100× peptoid solutions were prepared in water and 2 μL of peptoid were added to each well in triplicate then incubated at 37° C. for 24 hours. PRESTOBLUE (20 μL) was added to each well and incubated at 37° C. for one hour before measuring fluorescence on a SPECTRAMAX M5 plate reader (Ex. 555 nm; Em. 585 nm).

Series [8] has as its system C. glabrata. Format: cell-based, Candida glabrata.

Values after ≈ are worked out from the molar mass of the structure shown. Numbered stars: 1 amine (or outer) side, 2 acyl side, 3 side chain; on linkers, the order of the positions; unused ones are H or OH. Square brackets hold non-standard residues; d marks the D form. Peptide text beside a SMILES is read from it. N(tridecyl)Gly = CCCCCCCCCCCCCNCC(=O)O; X1 = CC(c1ccccc1)N(CC(=O)[*:2])[*:1]; NFurfurylGly = O=C(O)CNCc1ccco1; Gly(N(CH2)3NH2) = NCCCNCC(=O)O; Nphe = O=C(O)CNCc1ccccc1; NPrGly = CCCNCC(=O)O; Nlys = NCCCCNCC(=O)O

A word on the CC50: it is the concentration at which the toxic effect on the cells reaches its halfway point. Higher therefore signals lower toxicity to the cells. As for `CCCCCCCCCCCCCNCC(=O)N(CCC)CC(=O)N(CC(=O)N(CCCCN)CC(=O)N(CC(=O)N(CC(=O)N(CCCN)CC(N)=O)Cc1ccccc1)Cc1ccco1)C(C)c1ccccc1` (stereo not shown) [RMG9-11] (H-[N(tridecyl)Gly][NPrGly][X1][Nlys][NFurfurylGly][Nphe][Gly(N(CH2)3NH2)]-NH2), the “MIC C. auris” value in series [1] is 12.5 µg/mL (≈ 12 µM). The CC50 at 72 h is 53 ± 5 µg/mL (≈ 50.8 µM) in series [2] (human, HaCat human keratinocyte cells); 114 ± 5 µg/mL (≈ 109 µM) in series [2] (human, HepG2 hepatocellular carcinoma cells); 39 ± 2 µg/mL (≈ 37.4 µM) in series [2] (mouse, 3T3 mouse fibroblast cells). Further, the “toxicity at the MIC against C. albicans, HepG2” value in series [3] is reported as “no toxicity”. For the same compound, in series [4], the “TD50 3T3” value came out at 39 µg/mL. In addition, the “toxicity at the MIC, 3T3” value in series [4] is recorded as “minimal”. For the same compound, the “TD50 HaCat” value in series [5] amounted to 53 µg/mL. Besides, the “toxicity at the MIC, HaCat” value in series [5] is listed as “minimal”. The “MIC M. smegmatis” value in series [6] was 6.25 µg/mL (≈ 5.99 µM). Further, the “increase of biofilm MIC compared to MIC” value in series [7] (BMIC vs planktonic C. albicans MIC) was determined as 16 fold. The “MIC C. albicans biofilm (BMIC)” value in series [7] (established biofilm, 24 h) was determined as 100 µg/mL (≈ 95.8 µM). Besides, the “MIC C. glabrata” value in series [8] stood at 6.25 µg/mL (≈ 5.99 µM).
